The results in this text go back to ChEMBL document CHEMBL1150899, “Novel quinone methides from Salacia kraussii with in vitro antimalarial activity” (J Nat Prod, 1998).

Values after ≈ are worked out from the molar mass of the structure shown.

For data set [1], the system named is Plasmodium falciparum. Kind of data set: Antiplasmodial activity against chloroquine-sensitive Plasmodium falciparum NF54 infected human erythrocytes as [3H]hypoxanthine uptake. In kind it is functional, organism-based.
Data set [2] concerns Plasmodium falciparum. Kind of data set: Antiplasmodial activity against chloroquine-resistant Plasmodium falciparum K1 infected human erythrocytes as [3H]hypoxanthine uptake. It is filed as functional, organism-based.
For another data set, the system named is Mus musculus. The data set can be described thus: Toxicity against Plasmodium berghei-infected mice (Mus musculus) assessed as mortality at 10 mg/kg, subcutaneously after 1 day. Particulars: in vivo, sc, 24 h. In kind it is organism-based. The arrangement: dose 10 mg/kg, route subcutaneous.
Another data set has as its system HT-29. Kind of data set: Cytotoxicity against human HT-29 cells after 72 hrs by Alamar blue assay. In kind it is functional, cell-based. To be noted: HT-29, 72 h. In general terms: Resazurin is reduced to fluorescent resorufin, in cell work by metabolically active cells.

On to `C=C1CC[C@]2(C=O)CC[C@]3(C)C4=CC=C5C(=CC(=O)C(O)=C5C)[C@]4(C)CC[C@@]3(C)[C@@H]2C1`, for which the values for the IC50 with Plasmodium falciparum [1] and in the data set with Plasmodium falciparum [2] were 0.0799 µg/mL (≈ 0.191 µM) and 0.094 µg/mL (≈ 0.225 µM), respectively.
On to `C=C1CC[C@]2(C(=O)OC)CC[C@]3(C)C4=CC=C5C(=CC(=O)C(O)=C5C)[C@]4(C)CC[C@@]3(C)[C@@H]2C1`, for which the Activity entry in the data set with Mus musculus is reported as “Toxic”. Also, the IC50 (commonly the point on the concentration scale where inhibition reaches its midpoint) with Plasmodium falciparum [1] was determined as 0.0371 µg/mL (≈ 0.0827 µM); in the data set on Plasmodium falciparum [2], 0.0276 µg/mL (≈ 0.0615 µM); in the data set on HT-29 it was 2.38 µg/mL (≈ 5.31 µM).
For the molecule `C=C1CC[C@]2(CO)CC[C@]3(C)C4=CC=C5C(=CC(=O)C(O)=C5C)[C@]4(C)CC[C@@]3(C)[C@@H]2C1`, the results for the IC50 in the data set on Plasmodium falciparum [1], in the data set on Plasmodium falciparum [2] and in the data set with HT-29 were 0.14 µg/mL (≈ 0.333 µM), 0.114 µg/mL (≈ 0.272 µM) and 6.06 µg/mL (≈ 14.4 µM), respectively.
Consider `CC1=C(O)C(=O)C=C2C1=CC=C1[C@@]2(C)CC[C@@]2(C)[C@@H]3C[C@](C)(C(=O)O)CC[C@]3(C)CC[C@]12C` [CELASTROL], for which the half-inhibitory concentration (IC50) with Plasmodium falciparum [1] stood at 0.254 µg/mL (≈ 0.564 µM); in the data set with Plasmodium falciparum [2], 0.181 µg/mL (≈ 0.401 µM); with HT-29, 1.3 µg/mL (≈ 2.88 µM).
In turn, `CCN(CC)CCCC(C)Nc1ccnc2cc(Cl)ccc12` (centres undefined) [CHLOROQUINE] had a half-maximal inhibitory concentration (IC50) in the data set with HT-29 of 58 µg/mL (≈ 181 µM).
Take `CC1=C(O)C(=O)C=C2C1=CC=C1[C@@]2(C)CC[C@@]2(C)[C@@H]3C[C@H](CO)CC[C@]3(C)CC[C@]12C` [ISOIGUESTEROL]: the IC50 in the data set with Plasmodium falciparum [1] came to 0.0541 µg/mL (≈ 0.128 µM); in the data set with Plasmodium falciparum [2] it was 0.0229 µg/mL (≈ 0.0542 µM); in the data set with HT-29 it was 2.43 µg/mL (≈ 5.75 µM).
For `COC(=O)[C@]1(C)CC[C@]2(C)CC[C@]3(C)C4=CC=C5C(=CC(=O)C(O)=C5C)[C@]4(C)CC[C@@]3(C)[C@@H]2C1` [PRISTIMERIN], in that order: 0.271 µg/mL (≈ 0.583 µM), 0.19 µg/mL (≈ 0.41 µM) and 4.6 µg/mL (≈ 9.9 µM).
